From patent US7196110B2, “N-substituted tricyclic 3-aminopyrazoles as inhibitors for the treatment of cell proliferative disorders” (Janssen Phamaceutica N.V., priority 2002, dated 2007) come the findings set out here.

For assay [1], the target named is c-Abl kinase (Abelson murine leukemia virus, UniProt P00521). Nature of the assay: Inhibition of c-Abl kinase activity (cell-free, Abl peptide substrate, 33P Flashplate). The settings on record: IC50 for the c-Abl kinase activity. It counts as biochemical.
Assay [2] concerns the target T1, PDGF-receptor beta enzyme comprising the tyrosine kinase domain (Homo sapiens, UniProt P09619).
T1 construct: from amino acid 545 to 1106 of GenBank Access NO: AAA36427
Nature of the assay: Inhibition of PDGF-receptor kinase activity (cell-free, PLC1 peptide, 33P Flashplate). It counts as biochemical. The settings on record: PDGF-R kinase activity; for inhibition at 10 µM: compound at 10 uM, read-out: Percent Inhibition @ 10 uM; for IC50: read-out: IC50. The method in brief:
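Recombinant kinase domain (aa 545–1106) phosphorylated a biotinylated PLC1 peptide with 5 μM ATP plus 33P-γ-ATP, in Tris pH 8, MgCl2, Na3VO4 and 1 mM DTT, for 60 min at 30 °C. Retained 33P was counted after washing. IC50 is the concentration halving activity versus no-inhibitor reactions.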

T1 sequence (P09619 545-1106): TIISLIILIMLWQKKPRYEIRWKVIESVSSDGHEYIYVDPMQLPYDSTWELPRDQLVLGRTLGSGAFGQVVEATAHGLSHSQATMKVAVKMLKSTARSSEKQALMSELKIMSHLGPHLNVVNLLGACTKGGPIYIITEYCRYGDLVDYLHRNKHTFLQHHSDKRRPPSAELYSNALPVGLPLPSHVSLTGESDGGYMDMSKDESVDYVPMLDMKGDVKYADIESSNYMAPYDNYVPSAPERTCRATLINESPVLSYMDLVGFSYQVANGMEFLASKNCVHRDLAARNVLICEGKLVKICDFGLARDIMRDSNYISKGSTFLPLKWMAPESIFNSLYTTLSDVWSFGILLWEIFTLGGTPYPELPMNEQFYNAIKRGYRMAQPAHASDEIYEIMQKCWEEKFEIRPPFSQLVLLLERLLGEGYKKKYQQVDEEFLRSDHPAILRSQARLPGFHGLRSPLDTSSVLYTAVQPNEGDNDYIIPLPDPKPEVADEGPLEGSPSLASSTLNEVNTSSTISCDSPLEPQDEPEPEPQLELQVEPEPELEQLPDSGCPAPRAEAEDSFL
c-Abl kinase, sequence (P00521 115-385): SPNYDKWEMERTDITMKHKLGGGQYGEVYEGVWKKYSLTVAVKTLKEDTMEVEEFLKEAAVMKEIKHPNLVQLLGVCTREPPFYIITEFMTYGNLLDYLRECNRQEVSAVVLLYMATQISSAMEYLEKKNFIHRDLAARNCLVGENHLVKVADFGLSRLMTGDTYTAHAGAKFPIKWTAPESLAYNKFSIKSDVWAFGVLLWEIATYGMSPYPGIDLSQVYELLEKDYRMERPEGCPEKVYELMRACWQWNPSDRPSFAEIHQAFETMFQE

As a reminder, the IC50 is the concentration needed to halve the response being measured. One may read the inhibition as the share of the control response that was lost under treatment. `CCOC(=O)CC(=O)n1nc(Nc2cccc(F)c2)c2c1-c1cc(OC)c(OC)cc1C2` [Compound 459, 3-[3-(3-Fluoro-phenylamino)-6,7-dimethoxy-4H-indeno[1,2-c]pyrazol-1-yl]-3-oxo-propionic acid ethyl ester]: the IC50 in assay [1] was determined as 0.07 µM. In assay [2], the inhibition at 10 µM was found to be 100% and the IC50 worked out at 0.0365 µM.
In the case of `CN(C)CCCOc1cccc2c1Cc1c-2n[nH]c1Nc1cccc(F)c1` [Compound 90, [5-(3-Dimethylamino-propoxy)-2,4-dihydro-indeno[1,2-c]pyrazol-3-yl]-(3-fluoro-phenyl)-amine], the IC50 in assay [1] was 10.3 µM. Besides, in assay [2], the inhibition at 10 µM was determined as 97% and the IC50 worked out at 0.0087 µM.
The like results for `COc1cc(Nc2[nH]nc3c2Cc2cc(F)ccc2-3)cc(OC)c1` [Compound 204, (3,5-Dimethoxy-phenyl)-(6-fluoro-2,4-dihydro-indeno[1,2-c]pyrazol-3-yl)-amine] were, in that order, 0.165 µM, 90% and 0.038 µM.
Take `COc1cc2c(cc1OCCCn1ccnc1)Cc1c-2n[nH]c1Nc1ccc(F)c(Cl)c1` [Compound 227, (3-Chloro-4-fluoro-phenyl)-[6-(3-imidazol-1-yl-propoxy)-7-methoxy-2,4-dihydro-indeno[1,2-c]pyrazol-3-yl]-amine]: in assay [1], the half-inhibitory concentration (IC50) was 0.641 µM. Further, in assay [2], the inhibition at 10 µM stood at 83.5% and the IC50 worked out at 0.0349 µM.
For `COc1cc2c(cc1OCC(O)CN1CCCC1)Cc1c-2n[nH]c1Nc1cccc(F)c1` (stereo not drawn) [Compound 269, 1-[3-(3-Fluoro-phenylamino)-7-methoxy-2,4-dihydro-indeno[1,2-c]pyrazol-6-yloxy]-3-pyrrolidin-1-yl-propan-2-ol] the same measures were 0.101 µM, 94% and 0.000591 µM.
For `COc1cc2c(cc1OC)-c1n[nH]c(Nc3cccc(Br)c3)c1C2` [Compound 44, (3-Bromo-phenyl)-(6,7-dimethoxy-2,4-dihydro-indeno[1,2-c]pyrazol-3-yl)-amine] the same measures were 0.007 µM, 94% and 0.00054 µM.
With `COc1cccc(Nc2[nH]nc3c2C(C)c2cc(OC)c(OC)cc2-3)c1` (stereo not drawn) [Compound 253, (6,7-Dimethoxy-4-methyl-2,4-dihydro-indeno[1,2-c]pyrazol-3-yl)-(3-methoxy-phenyl)-amine], in assay [1], the IC50 is 0.0379 µM. Besides, in assay [2], the inhibition at 10 µM stood at 94% and the IC50 turned out to be 0.0165 µM.
For `COc1ccc(Nc2[nH]nc3c2Cc2cc(F)ccc2-3)cc1OC` [Compound 205, (3,4-Dimethoxy-phenyl)-(6-fluoro-2,4-dihydro-indeno[1,2-c]pyrazol-3-yl)-amine], the IC50 in assay [1] was 0.328 µM. In assay [2], the inhibition at 10 µM was determined as 86% and the IC50 is 0.047 µM.
Take `COc1cc2c(cc1OC)C(C)c1c-2n[nH]c1Nc1cccc(F)c1` (stereo not drawn) [Compound 249, (6,7-Dimethoxy-4-methyl-2,4-dihydro-indeno[1,2-c]pyrazol-3-yl)-(3-fluoro-phenyl)-amine]: the values for the concentration for half-maximal inhibition (IC50) in assay [1] and in assay [2] were 0.035 µM and 0.006 µM, respectively. Further, in assay [2], the inhibition at 10 µM came to 96%.
The like results for `COc1cc2c(cc1OCCCO)Cc1c-2n[nH]c1Nc1ccc(F)c(Cl)c1` [Compound 267, 3-[3-(3-Choloro-4-fluoro-phenylamino)-7-methoxy-2,4-dihydro-indeno[1,2-c]pyrazol-6-yloxy]-propan-1-ol] were, in that order, 0.326 µM, 0.0106 µM and 93.5%.
For `COc1cc2c(cc1OCCCN(C)C)Cc1c-2n[nH]c1Nc1cccc(F)c1` [Compound 199, [6-(3-Dimethylamino-propoxy)-7-methoxy-2,4-dihydro-indeno[1,2-c]pyrazol-3-yl]-(3-fluoro-phenyl)-amine] the same measures were 0.027 µM, 0.0059 µM and 83%.
